We go through 18 compounds from PubChem BioAssay AID248 (DTP/NCI, 2004).

Several values for one entry are separate records, joined by “and”; a condition that tells them apart may be missing. Equal entries are not always repeated. Inconclusive results and toxic doses are left out.

The experiment deals with L1210 leukemia ip in BDF1 mice, survival T/C. Briefly: NCI In Vivo Anticancer Drug Screen. Data for tumor model L1210 Leukemia (intraperitoneal) in B6D2F1 (BDF1) mice. The settings on record: endpoint: mean survival time, higher = longer survival. Put shortly:
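Tumor cells were implanted, animals were treated, and survival was followed. The result divides the treated measurement by the vehicle-control measurement.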

The mark [1] stands for this setting: dose: 100.0 mg/kg/injection, schedule: Q04DX003 (ip), vehicle: saline with Tween-80.
Setting [2] is: dose: 200.0 mg/kg/injection, schedule: Q04DX003 (ip), vehicle: saline with Tween-80.
The mark [3] stands for this setting: dose: 400.0 mg/kg/injection, schedule: Q04DX003 (ip), vehicle: saline with Tween-80.
[4] abbreviates: dose: 100.0 mg/kg/injection, schedule: Q04DX003 (ip), vehicle: Klucel (hydroxypropylcellulose) (HPC).
Setting [5] is: dose: 50.0 mg/kg/injection, schedule: Q01DX001 (ip), vehicle: saline.
[6] abbreviates: dose: 100.0 mg/kg/injection, schedule: Q01DX001 (ip), vehicle: saline.
Setting [7] is: dose: 200.0 mg/kg/injection, schedule: Q01DX001 (ip), vehicle: saline.
Setting [8] is: dose: 100.0 mg/kg/injection, schedule: Q01DX009 (ip), vehicle: Klucel (hydroxypropylcellulose) (HPC).
The mark [9] stands for this setting: dose: 200.0 mg/kg/injection, schedule: Q01DX009 (ip), vehicle: Klucel (hydroxypropylcellulose) (HPC).
The mark [10] stands for this setting: dose: 400.0 mg/kg/injection, schedule: Q01DX009 (ip), vehicle: Klucel (hydroxypropylcellulose) (HPC).

As to `O=C1C(O)=C(c2ccc(O)cc2)C(=O)C(O)=C1c1ccc(O)cc1`, the T/C by setting is: (dose: 25.0 mg/kg/injection, schedule: Q04DX002 (ip), vehicle: Klucel (hydroxypropylcellulose) (HPC)) 88 % of control; (dose: 25.0 mg/kg/injection, schedule: Q04DX002 (oral), vehicle: saline with Tween-80) 105 % of control; (dose: 50.0 mg/kg/injection, schedule: Q04DX002 (ip), vehicle: Klucel (hydroxypropylcellulose) (HPC)) 95 % of control; (dose: 50.0 mg/kg/injection, schedule: Q04DX002 (oral), vehicle: saline with Tween-80) 98 % of control; (dose: 100.0 mg/kg/injection, schedule: Q04DX002 (ip), vehicle: Klucel (hydroxypropylcellulose) (HPC)) 103 % of control; (dose: 100.0 mg/kg/injection, schedule: Q04DX002 (oral), vehicle: saline with Tween-80) 112 % of control.
Take `NC1C2C3CCC(C(C(=O)O)C3C(=O)O)C12` (configuration not stated): the T/C is, setting by setting: under setting [1], 89 % of control; under setting [2], 110 % of control; under setting [3], 100 % of control.
As to `CN=C(NC)c1ccc(NC(=O)c2cc(OC)cc(C(=O)Nc3ccc(C(=NC)NC)cc3)c2)cc1`, the T/C (dose: 3.75 mg/kg/injection, schedule: Q01DX Z (ip), vehicle: saline) was 100 % of control; the T/C (dose: 7.5 mg/kg/injection, schedule: Q01DX Z (ip), vehicle: saline) is 98 % of control; the T/C (dose: 15.0 mg/kg/injection, schedule: Q01DX Z (ip), vehicle: saline) is 98 % of control.
In the case of `Cc1nc(-c2ccc(N=Cc3ccc(N(CCOS(C)(=O)=O)CCOS(C)(=O)=O)cc3)cc2)c(C)s1`, the T/C runs as follows: (dose: 2.5 mg/kg/injection, schedule: Q04DX003 (ip), vehicle: Klucel (hydroxypropylcellulose) (HPC)) 109 % of control; (dose: 5.0 mg/kg/injection, schedule: Q04DX003 (ip), vehicle: Klucel (hydroxypropylcellulose) (HPC)) 111 % of control; (dose: 10.0 mg/kg/injection, schedule: Q04DX003 (ip), vehicle: Klucel (hydroxypropylcellulose) (HPC)) 122 % of control; (dose: 40.0 mg/kg/injection, schedule: Q04DX003 (ip), vehicle: Klucel (hydroxypropylcellulose) (HPC)) 171 % of control; (dose: 80.0 mg/kg/injection, schedule: Q04DX003 (ip), vehicle: Klucel (hydroxypropylcellulose) (HPC)) 117 % of control; under setting [4], 100 % of control.
For `O=P(c1ccccc1)(c1ccccc1)c1ccccc1`, the T/C reads like this: under setting [5], 102 % of control; under setting [6], 98 % of control; under setting [7], 98 % of control.
Regarding `CC(C)(CO)NCC(C)(C)[N+](=O)[O-]`, the T/C was 103 % of control under setting [4]; 102 % of control (dose: 200.0 mg/kg/injection, schedule: Q04DX003 (ip), vehicle: Klucel (hydroxypropylcellulose) (HPC)); 112 % of control (dose: 400.0 mg/kg/injection, schedule: Q04DX003 (ip), vehicle: Klucel (hydroxypropylcellulose) (HPC)).
With `Sc1ccccc1.[Pb]`, the T/C was 98 % of control (dose: 25.0 mg/kg/injection, schedule: Q01DX009 (ip), vehicle: Klucel (hydroxypropylcellulose) (HPC)); 101 % of control (dose: 50.0 mg/kg/injection, schedule: Q01DX009 (ip), vehicle: Klucel (hydroxypropylcellulose) (HPC)); 92 % of control and 87 % of control under setting [8].
Regarding `O=C(CI)NCc1cn(C2CC(O)C(CO)O2)c(=O)[nH]c1=O` (configuration not stated), the T/C runs as follows: (dose: 25.0 mg/kg/injection, schedule: Q01DX005 (ip), vehicle: water) 105 % of control; (dose: 50.0 mg/kg/injection, schedule: Q01DX005 (ip), vehicle: water) 116 % of control; (dose: 100.0 mg/kg/injection, schedule: Q01DX005 (ip), vehicle: water) 116 % of control.
With `CC(=O)Nc1ccc(/C=N/NC(=O)COCC(=O)N/N=C/c2ccc(NC(C)=O)cc2)cc1`, the T/C by setting is: under setting [8], 91 % of control; under setting [9], 94 % of control; under setting [10], 96 % of control.
For the compound `N#C/C(=C\c1ccncc1)c1csc2ccccc12`, the T/C by setting is: under setting [1], 101 % of control; under setting [2], 100 % of control; under setting [3], 94 % of control.
Consider `COc1ccc2c3c(ccc2c1)C1=C(C(=O)O)CC(=O)C1(C)CC3` (configuration not stated), for which the T/C is, setting by setting: (dose: 100.0 mg/kg/injection, schedule: Q01DX009 (sc), vehicle: steriod suspending solution) 114 % of control; (dose: 100.0 mg/kg/injection, schedule: Q04DX003 (sc), vehicle: steriod suspending solution) 117 % of control; (dose: 200.0 mg/kg/injection, schedule: Q01DX009 (sc), vehicle: steriod suspending solution) 101 % of control; (dose: 200.0 mg/kg/injection, schedule: Q04DX003 (sc), vehicle: steriod suspending solution) 97 % of control; (dose: 400.0 mg/kg/injection, schedule: Q01DX009 (sc), vehicle: steriod suspending solution) 95 % of control; (dose: 400.0 mg/kg/injection, schedule: Q04DX003 (sc), vehicle: steriod suspending solution) 101 % of control.
Consider `CC(=O)N1C(=O)C2(Nc3ccccc3N2)c2ccccc21`, for which the T/C reads like this: (dose: 100.0 mg/kg/injection, schedule: Q01DX001 (ip), vehicle: carboxymethylcellulose (CMC)) 87 % of control; (dose: 200.0 mg/kg/injection, schedule: Q01DX001 (ip), vehicle: carboxymethylcellulose (CMC)) 87 % of control; (dose: 400.0 mg/kg/injection, schedule: Q01DX001 (ip), vehicle: carboxymethylcellulose (CMC)) 96 % of control.
In the case of `C1CSCCS1`, the T/C runs as follows: under setting [8], 101 % of control; under setting [9], 117 % of control; under setting [10], 100 % of control.
In the case of `CN(CC(=O)NCCCCCCCCCCNC(=O)CN(C)C(=O)OCc1ccccc1)C(=O)OCc1ccccc1`, the T/C was 94 % of control (dose: 10.0 mg/kg/injection, schedule: Q01DX Z (ip), vehicle: saline); 88 % of control (dose: 30.0 mg/kg/injection, schedule: Q01DX Z (ip), vehicle: saline); 91 % of control (dose: 100.0 mg/kg/injection, schedule: Q01DX Z (ip), vehicle: saline); 88 % of control (dose: 300.0 mg/kg/injection, schedule: Q01DX Z (ip), vehicle: saline).
Turning to `COc1cccc(C2CCCCC2O)c1` (configuration not stated), the T/C by setting is: (dose: 50.0 mg/kg/injection, schedule: Q01DX009 (ip), vehicle: saline with Tween-80) 90 % of control; (dose: 100.0 mg/kg/injection, schedule: Q01DX009 (ip), vehicle: saline with Tween-80) 93 % of control; (dose: 200.0 mg/kg/injection, schedule: Q01DX009 (ip), vehicle: saline with Tween-80) 96 % of control.
With `CC(C)=CCCC(C)CCO` (configuration not stated), the T/C is 94 % of control under setting [6] and 100 % of control under setting [7].
Consider `COc1cc([N+](=O)[O-])c2nc(C(=O)O)ccc2c1`, for which the T/C is 116 % of control under setting [5], 106 % of control under setting [6] and 112 % of control under setting [7].
Consider `CN1CC(=O)n2c(cc3ccccc32)C1=O`, for which the T/C reads like this: (dose: 100.0 mg/kg/injection, schedule: Q04DX002 (ip), vehicle: saline) 110 % of control; (dose: 400.0 mg/kg/injection, schedule: Q04DX002 (ip), vehicle: saline) 105 % of control.
